The text below walks through data of article PMC11480954, “Molecular determinants of resurgent sodium currents mediated by Navβ4 peptide and A-type FHFs” (Frontiers in Molecular Neuroscience, 2024).

Values joined by “and” are separate entries in the source; they are usually repeats but may differ in a detail not shown here. Equal values may be shown once. Read-outs that look alike come from different tables or passages of the source. No end group written: not given here.

One assay deals with Nav1.7 N395K. The following applies: ref Sheets et al., 2007; cited from earlier work. The text has this:
The receptor site of local anesthetics is formed by multiple residues within DIS6, DIIIS6 and DIVS6. […] Several studies have implicated F1764 and Y1771 in Nav1.2 (corresponding to F1737 and Y1744 in Nav1.7) as playing a major effect on local anesthetics-induced inhibition of VGSCs ([Ragsdale et al., 1996]). We recently reported that mutation of an asp ...

A further assay deals with Purkinje neurons. The following applies: ref White et al., 2019, cited from earlier work. The text has this: Next, we investigated if FHF4A, another INaR mediator reported recently ([White et al., 2019]; [Xiao et al., 2022]), shares the receptor site in VGSCs with Navβ4 peptide.
Assay [1] deals with T1, human Nav1.7 R1599P (rpNav1.7) (Homo sapiens, UniProt Q15858, R1610P).
T1 construct: expressed in transfected cells; host or cells: HEK293 cells, transient transfection with pcDNA3.1 construct
T1 sequence (Q15858 1-1977 isoform Q15858-3 R1599P): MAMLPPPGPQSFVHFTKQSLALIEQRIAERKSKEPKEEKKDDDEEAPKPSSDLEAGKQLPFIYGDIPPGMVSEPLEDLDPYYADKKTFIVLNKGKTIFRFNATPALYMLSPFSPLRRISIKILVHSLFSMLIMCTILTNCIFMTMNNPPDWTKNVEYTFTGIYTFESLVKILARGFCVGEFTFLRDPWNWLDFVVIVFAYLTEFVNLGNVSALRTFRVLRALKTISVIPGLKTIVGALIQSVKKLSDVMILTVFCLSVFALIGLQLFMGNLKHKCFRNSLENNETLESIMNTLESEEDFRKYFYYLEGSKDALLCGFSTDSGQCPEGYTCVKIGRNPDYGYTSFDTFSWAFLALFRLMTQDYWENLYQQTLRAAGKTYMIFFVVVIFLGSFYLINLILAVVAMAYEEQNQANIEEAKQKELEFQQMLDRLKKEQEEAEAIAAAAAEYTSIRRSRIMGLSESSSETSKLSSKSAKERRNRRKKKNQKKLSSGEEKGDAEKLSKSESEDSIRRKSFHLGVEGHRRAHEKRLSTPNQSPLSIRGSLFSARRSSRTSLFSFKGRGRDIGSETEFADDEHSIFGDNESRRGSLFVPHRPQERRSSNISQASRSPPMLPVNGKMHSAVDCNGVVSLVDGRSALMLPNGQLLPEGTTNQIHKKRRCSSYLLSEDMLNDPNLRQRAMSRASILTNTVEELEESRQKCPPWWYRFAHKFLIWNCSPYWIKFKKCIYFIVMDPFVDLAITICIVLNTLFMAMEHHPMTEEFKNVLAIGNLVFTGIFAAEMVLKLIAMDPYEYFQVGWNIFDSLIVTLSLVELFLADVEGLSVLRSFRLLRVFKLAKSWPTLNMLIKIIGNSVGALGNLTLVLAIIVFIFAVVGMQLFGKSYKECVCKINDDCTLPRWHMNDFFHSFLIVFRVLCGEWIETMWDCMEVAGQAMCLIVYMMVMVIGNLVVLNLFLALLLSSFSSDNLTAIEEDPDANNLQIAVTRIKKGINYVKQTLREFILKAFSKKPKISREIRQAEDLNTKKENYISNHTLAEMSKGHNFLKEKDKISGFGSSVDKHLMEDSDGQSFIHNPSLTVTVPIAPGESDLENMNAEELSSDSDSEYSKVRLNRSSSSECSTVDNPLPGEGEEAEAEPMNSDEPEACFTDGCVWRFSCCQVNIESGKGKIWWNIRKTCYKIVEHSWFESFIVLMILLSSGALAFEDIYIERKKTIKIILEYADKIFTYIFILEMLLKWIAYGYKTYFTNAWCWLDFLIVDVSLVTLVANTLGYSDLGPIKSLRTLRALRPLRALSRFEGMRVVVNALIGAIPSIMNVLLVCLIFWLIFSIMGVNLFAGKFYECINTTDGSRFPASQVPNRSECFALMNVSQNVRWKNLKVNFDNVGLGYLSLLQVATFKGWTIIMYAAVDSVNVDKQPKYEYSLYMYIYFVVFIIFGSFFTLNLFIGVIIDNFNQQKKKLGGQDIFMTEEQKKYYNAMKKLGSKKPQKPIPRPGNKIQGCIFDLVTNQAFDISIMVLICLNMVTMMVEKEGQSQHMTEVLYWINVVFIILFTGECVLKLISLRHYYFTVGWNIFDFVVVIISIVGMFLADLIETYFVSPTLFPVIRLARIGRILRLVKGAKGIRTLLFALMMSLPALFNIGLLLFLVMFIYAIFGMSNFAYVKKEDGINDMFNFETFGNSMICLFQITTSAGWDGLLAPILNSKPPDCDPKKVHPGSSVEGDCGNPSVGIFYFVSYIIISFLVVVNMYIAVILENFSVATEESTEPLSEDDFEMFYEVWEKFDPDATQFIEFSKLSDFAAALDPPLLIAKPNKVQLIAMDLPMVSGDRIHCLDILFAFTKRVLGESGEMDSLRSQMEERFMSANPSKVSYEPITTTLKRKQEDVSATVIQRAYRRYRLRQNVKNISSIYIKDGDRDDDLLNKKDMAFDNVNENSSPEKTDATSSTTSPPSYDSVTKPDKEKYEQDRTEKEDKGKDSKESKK
T1 sequence (Q07699 19-218 partner): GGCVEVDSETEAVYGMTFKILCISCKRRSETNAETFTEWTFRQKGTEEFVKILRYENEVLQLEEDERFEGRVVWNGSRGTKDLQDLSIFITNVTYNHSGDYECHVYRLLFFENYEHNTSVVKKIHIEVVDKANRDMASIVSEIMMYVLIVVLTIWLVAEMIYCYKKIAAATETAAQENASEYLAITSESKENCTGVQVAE
T1 sequence (O60939 30-215 partner): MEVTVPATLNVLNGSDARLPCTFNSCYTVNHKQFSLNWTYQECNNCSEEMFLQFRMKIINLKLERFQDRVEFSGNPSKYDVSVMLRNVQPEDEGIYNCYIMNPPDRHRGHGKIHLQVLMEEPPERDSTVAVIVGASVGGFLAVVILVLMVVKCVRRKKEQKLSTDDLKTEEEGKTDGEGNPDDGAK
Nature of the assay: Resurgent current (INaR), whole-cell patch clamp, rpNav1.7. It counts as cell-based. How it is done:
(§1) HEK293 cells and ND7/23 cells were grown under standard tissue culture conditions (5% CO2 and 37°C) in DMEM supplemented with 10% FBS, 1% penicillin and 1% streptomycin. Using Invitrogen Lipofectamine 2000, human Nav1.7 R1599P (rpNav1.7) and the mutant constructs were transiently co-transfected with Navβ1 and Navβ2 into HEK293 cells. The constructs human Nav1.8 and mutants were transiently co-transfected with FHF2B or FHF4A into ND7/23 cells. The lipofectamine-DNA mixture was added to the cell culture medium and left for 3 h after which the cells were washed with fresh medium. Cells with green fluorescent protein fluorescence were selected for whole-cell patch-clamp recordings 36–72 h after transfection.
(§2) Whole-cell voltage-clamp recordings were performed at room temperature (~21°C) using an EPC-10 amplifier and the Pulse program (HEKA Electronics). Fire-polished electrodes (0.7–1.0 MΩ) were fabricated from 1.7 mm capillary glass using a P-97 puller (Sutter Instruments), and the tips were coated with sticky wax (KerrLab) to reduce electrode capacitance and enable increased series resistance compensation. The pipette solution contained (in mM) 140 CsF, 1.1 EGTA, 10 NaCl, and 10 HEPES, pH 7.3. The bathing solution was (in mM) 130 mM NaCl, 30 mM TEA chloride, 1 mM MgCl2, 3 mM KCl, 1 mM CaCl2, 10 mM HEPES, and 10 mM d-glucose, pH 7.3 (adjusted with NaOH). […] The offset potential was zeroed before contacting the cell. After establishing the whole-cell recording configuration, the resting potential was held at −120 or −100 mV for 5 min to allow adequate equilibration between the micropipette solution and the cell interior. […]
(§3) INaR: INaR was elicited by repolarizing voltage steps from +20 to −80 mV for 100 ms (or 200 ms) in −5 mV increments, following a 20-ms depolarizing potential of +30 mV. […] The relative INaR in Nav1.7 and Nav1.8 was calculated by normalizing to the peak transient current elicited at −10 or 0 mV.

Assay [2] has as its target T1, human Nav1.7 R1599P (rpNav1.7). Kind of assay: Gating properties (steady-state activation, inactivation, INaP), rpNav1.7. Format: cell-based. How it is done: as §1, §2
(§4) Families of sodium currents were induced by 50-ms depolarizing steps to various potentials ranging from −120 (or −100) to +40 mV in 5-mV increments. The conductance was calculated using the equation G(Nav) = I/(V - Vrev) in which I, V, and Vrev represent inward current value, membrane potential, and reversal potential, respectively. […]

A further assay has as its system human Nav1.7. Nature of the assay: Steady-state activation and inactivation, WT Nav1.7. The following applies: HEK293, 100 μM intracellular, mean ± S.E., scramble n = 6, Navβ4 peptide n = 8. Format: cell-based. The method, then:
as §1
Whole-cell voltage-clamp recordings were performed at room temperature (~21°C) using an EPC-10 amplifier and the Pulse program (HEKA Electronics). […]
as §4

Assay [3] has as its system human Nav1.8. Nature of the assay: INaR, Nav1.8 co-expressed with FHF2B. It counts as cell-based. The following applies: Nav1.8 + FHF2B, ND7/23, 1 mM. The method, then: as §1
(§5) Whole-cell voltage-clamp recordings were performed at room temperature (~21°C) using an EPC-10 amplifier and the Pulse program (HEKA Electronics). Fire-polished electrodes (0.7–1.0 MΩ) were fabricated from 1.7 mm capillary glass using a P-97 puller (Sutter Instruments), and the tips were coated with sticky wax (KerrLab) to reduce electrode capacitance and enable increased series resistance compensation. The pipette solution contained (in mM) 140 CsF, 1.1 EGTA, 10 NaCl, and 10 HEPES, pH 7.3. The bathing solution was (in mM) 130 mM NaCl, 30 mM TEA chloride, 1 mM MgCl2, 3 mM KCl, 1 mM CaCl2, 10 mM HEPES, and 10 mM d-glucose, pH 7.3 (adjusted with NaOH). […] The offset potential was zeroed before contacting the cell. After establishing the whole-cell recording configuration, the resting potential was held at −120 or −100 mV for 5 min to allow adequate equilibration between the micropipette solution and the cell interior. Linear leak subtraction, based on resistance estimates from four to five hyperpolarizing pulses applied before the depolarizing test potential, was used for all voltage clamp recordings. Membrane currents were usually filtered at 5 kHz and sampled at 20 kHz. […] Voltage errors were minimized using 80–95% series resistance compensation, and the capacitance artifact was canceled using the computer-controlled circuitry of the patch clamp amplifier. […] The concentration-dependent curves were fitted to a hill equation: Y = Bottom + (Top-Bottom)/(1 + 10^((LogEC50-X)*HillSlope)).
as §3

The target of assay [4] is T1, human Nav1.7 R1599P (rpNav1.7). Nature of the assay: Long-term inactivation of rpNav1.7. It counts as cell-based. The following applies: rpNav1.7, HEK293; 1 mM; six 16-ms pulses of −10 mV from −100 mV, 40-ms interpulse; scramble n = 6, FHF4A peptide n = 5; p < 0.0001.
For assay [5], the system named is human Nav1.8. Kind of assay: Gating properties (steady-state activation, inactivation, INaP), Nav1.8. It counts as cell-based. The following applies: Nav1.8 + FHF2B, ND7/23; 1 mM; held at −100 mV; scramble n = 8, FHF4A peptide n = 10; p > 0.05. How it is done: as §1, §5
Families of sodium currents were induced by 50-ms depolarizing steps to various potentials ranging from −120 (or −100) to +40 mV in 5-mV increments. The conductance was calculated using the equation G(Nav) = I/(V - Vrev) in which I, V, and Vrev represent inward current value, membrane potential, and reversal potential, respectively.
Voltage dependence of steady-state inactivation was estimated using a standard double pulse protocol in which sodium currents were induced by a 50-ms depolarizing potential of 0 mV following a 500-ms prepulse at potentials that ranged from −150 to +10 mV with a 10-mV increment. Currents were plotted as a fraction of the maximum peak current. To obtain the midpoint voltages (V1/2) and slope factor (k), the curves of both steady-state activation and inactivation were fitted to a Boltzmann function.

For a further assay, the system named is VGSC α-subunits. The following applies: heterologous co-expression with VGSC α-subunits; no reference given; cited from earlier work. The text has this: FHF4A could still induce INaR from the F1710K channel (Figure 10A), but the average INaR amplitude at −20 mV is only 2.0% ± 0.2% of the peak transient current, which is less than one-half of the value from WT Nav1.8 (p < 0.0001). ... || The role of Navβ4 in INaR generation remains controversial. […] [Bant and Raman (2010)] reported that siRNA induced knock-down of Navβ4 reduced INaR generation in cultured cerebellar granular neurons by roughly 60%. […] Furthermore, Scn4b knock-out in mice has produced variable effects on INaR. In striatal neurons, Scn4b kno ...

For the molecule `CCN(CC)CC(=O)Nc1c(C)cccc1C` [lidocaine], the “effect of N395K on lidocaine inhibition of Nav1.7” value in the assay on Nav1.7 N395K was “attenuates the inhibitory effects of lidocaine on Nav1.7”.
With “substitution of the 7^th residue leucine with serine: FHF4A K50 – R63 peptide with substitution of the 7th residue leucine with serine (KVRIFGSKKRRLRR; FHF4A peptide K50-R63; UniProt Q92915 50-63, looked up, variant L56S)”, in the assay with Purkinje neurons, the “INaR in Purkinje neurons” value is on record as “no longer induce INaR”.
With KKLITFILKKTREK [Navβ4 peptide], the “average INaR amplitude elicited at −30 mV” value in assay [1] (rpNav1.7 + Navβ1 + Navβ2, HEK293, 100 μM peptide intracellular, measured after 3.0 ms into repolarization, ~21°C, mean ± S.E., n = 14) is given as 15.7% ± 1.1%. In assay [1] (rpNav1.7, HEK293, Hill equation, peptide in intracellular solution (10 μM – 1 mM), each data point from 3 to 14 cells, read-out: EC50 for INaR generation), the EC50 is 61.8 ± 1.3 µM. In assay [2] (end of 50-ms pulse of −10 mV, normalized to peak transient current, 100 μM Navβ4 peptide, n = 9), the “INaP, rpNav1.7” value was 7.1% ± 3.0% and 7.1 ± 3.0 (9) %.
For the molecule “peptide derived from the sequence FHF4A K50 – R63: a peptide derived from the sequence FHF4A K50 – R63 (KVRIFGLKKRRLRR; FHF4A; UniProt Q92915 50-63, looked up, fragment)”, the “INaR in Purkinje neurons” value with Purkinje neurons is on record as “INaR was also reconstituted in Purkinje neurons”; with Purkinje neurons (listed as short peptide derived from this segment), “induce robust Nav1.6 INaR in Purkinje neurons”.
With “KAREAQRASRAIEQLRSAKI [scrambled peptide, scrambled control peptide]”, the “INaR elicited with scrambled peptide” value in assay [1] (Nav1.7 and rpNav1.7 (Figures 1A,B), HEK293, 100 μM intracellular) is recorded as “no INaR was elicited”. Also, the “V1/2(activation), WT Nav1.7” value in the assay on human Nav1.7 (p < 0.01) was −29.3 ± 1.6 mV. Besides, the “V1/2(inactivation), WT Nav1.7” value in the assay with human Nav1.7 (p < 0.05) was −79.7 ± 1.7 mV. In [2] (HEK293, 100 μM intracellular, mean ± S.E., scramble n = 5, Navβ4 peptide n = 9, p < 0.05), the “Inactivation (V1/2), rpNav1.7” value was −75.0 ± 1.5 mV. Moreover, the “Activation (V1/2), rpNav1.7” value in [2] (HEK293, 100 μM intracellular, mean ± S.E., scramble n = 6, Navβ4 peptide n = 9, p < 0.01) is listed as −27.0 ± 1.9 mV. Also, the “INaR with scrambled peptide, Nav1.8” value with human Nav1.8 [3] is “failed to produce INaR”. Moreover, the “fraction of the current elicited at the 6th pulse” value in [4] is reported as 0.87 ± 0.08. For the same molecule, in the assay with human Nav1.8 [5], the “V1/2 (activation), Nav1.8, Figure 6” value is recorded as −10.0 ± 2.4 mV and the “V1/2 (inactivation), Nav1.8, Figure 6” value is −44.5 ± 2.1 mV.

B1: full-length Navβ4: full-length Navβ4 sodium channel auxiliary subunit (protein, UniProt Q8IWT1 1-228, looked up)
chain: MPGAGDGGKAPARWLGTGLLGLFLLPVTLSLEVSVGKATDIYAVNGTEILLPCTFSSCFGFEDLHFRWTYNSSDAFKILIEGTVKNEKSDPKVTLKDDDRITLVGSTKEKMNNISIVLRDLEFSDTGKYTCHVKNPKENNLQHHATIFLQVVDRLEEVDNTVTLIILAVVGGVIGLLILILLIKKLIIFILKKTREKKKECLVSSSGNDNTENGLPGSKAEEKPPSKV
modifications: full-length
notes: full-length Navβ4 sodium channel auxiliary subunit
Regarding B1, the “INaR with full-length Navβ4” value in the assay with VGSC α-subunits is “fails to reconstitute INaR in heterologous systems”.
